Laboratory results: ChEMBL document CHEMBL1201862, “PubChem BioAssay data set” (2004)
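Each compound was tested at five concentrations against cells in 96-well plates for 48 hours. The concentration for 50% growth inhibition is given as GI50.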 The source made the active and inactive calls. No stated cut-off is given here; in the data, active = GI50 up to about 1.1 µM and inactive = higher.

Tests used:
Assay in all cases: NCI tumour cell line growth inhibition, 48 h
786-0 = tested on: 786-0
A549 = tested on: A549
BT-549 = tested on: BT-549
CAKI-1 = tested on: CAKI-1
CCRF-CEM = tested on: CCRF-CEM
EKVX = tested on: EKVX
IGROV-1 = tested on: IGROV-1
K562 = tested on: K562
LOX IMVI = tested on: LOX IMVI
MCF7 = tested on: MCF7
NCI-H226 = tested on: NCI-H226
NCI-H522 = tested on: NCI-H522
NCI/ADR-RES = tested on: NCI/ADR-RES
OVCAR-3 = tested on: OVCAR-3
RXF 393 = tested on: RXF 393
SF-268 = tested on: SF-268
SK-MEL-28 = tested on: SK-MEL-28
SNB-75 = tested on: SNB-75
UO-31 = tested on: UO-31
HOP-92 = tested on: HOP-92

| SMILES | GI50 (786-0) | GI50 (A549) | GI50 (BT-549) | GI50 (CAKI-1) | GI50 (CCRF-CEM) | GI50 (EKVX) | GI50 (IGROV-1) | GI50 (K562) | GI50 (LOX IMVI) | GI50 (MCF7) | GI50 (NCI-H226) | GI50 (NCI-H522) | GI50 (NCI/ADR-RES) | GI50 (OVCAR-3) | GI50 (RXF 393) | GI50 (SF-268) | GI50 (SK-MEL-28) | GI50 (SNB-75) | GI50 (UO-31) | GI50 (HOP-92) |
| --- | --- | --- | --- | --- | --- | --- | --- | --- | --- | --- | --- | --- | --- | --- | --- | --- | --- | --- | --- | --- |
| CC(=O)c1cccn1/C=C(\OC(=O)OC(C)(C)C)c1ccc[nH]1 | > 100 µM (inactive) | 60 µM (inactive) | 60.7 µM (inactive) | 22 µM (inactive) | 39.8 µM (inactive) | 25.5 µM (inactive) | 40.6 µM (inactive) | 59.6 µM (inactive) | 62.4 µM (inactive) | 76.4 µM (inactive) | 33.2 µM (inactive) | 57 µM (inactive) | 50.2 µM (inactive) | 46.6 µM (inactive) | 33.8 µM (inactive) | 77.3 µM (inactive) | 96.6 µM (inactive) | 8.24 µM (inactive) | 36.9 µM (inactive) | – |
| COc1cc(/C=C2/SC(c3ccccc3)N(c3ccccc3)C2=O)cc(OC)c1OC (configuration not stated) | > 100 µM (inactive) | > 100 µM (inactive) | 29 µM (inactive) | > 100 µM (inactive) | 10.6 µM (inactive) | 51.6 µM (inactive) | – | 8.97 µM (inactive) | 69.5 µM (inactive) | 37.8 µM (inactive) | 80.4 µM (inactive) | 21.7 µM (inactive) | 48.2 µM (inactive) | 65.6 µM (inactive) | 23.7 µM (inactive) | > 100 µM (inactive) | > 100 µM (inactive) | – | 29.5 µM (inactive) | > 100 µM (inactive) |
| Cn1nc(/C=C\C(=O)N2CC(CCl)c3c2cc(N)c2ccccc32)cc1/C=C/C(=O)N1CC(CCl)c2c1cc(N)c1ccccc21 (configuration not stated) | < 0.01 µM (active) | < 0.01 µM (active) | < 0.01 µM (active) | < 0.01 µM (active) | < 0.01 µM (active) | 0.0215 µM (active) | – | < 0.01 µM (active) | < 0.01 µM (active) | < 0.01 µM (active) | < 0.01 µM (active) | < 0.01 µM (active) | 0.0124 µM (active) | < 0.01 µM (active) | < 0.01 µM (active) | < 0.01 µM (active) | < 0.01 µM (active) | < 0.01 µM (active) | < 0.01 µM (active) | – |
| O=C(COc1ccc(OCC(=O)N2C(=O)CC(=O)N(c3ccccc3)C2=S)cc1)N1C(=O)CC(=O)N(c2ccccc2)C1=S | 56.1 µM (inactive) | 40.4 µM (inactive) | 78.7 µM (inactive) | 0.851 µM (active) | – | > 100 µM (inactive) | 38.7 µM (inactive) | 52.1 µM (inactive) | – | 45.9 µM (inactive) | 65.8 µM (inactive) | 38.1 µM (inactive) | > 100 µM (inactive) | – | 25.5 µM (inactive) | 43.2 µM (inactive) | 87.3 µM (inactive) | > 100 µM (inactive) | 61.4 µM (inactive) | 52 µM (inactive) |
| c1ccc2c(-c3cnc(-c4c[nH]c5ccccc45)cn3)c[nH]c2c1 | 38.1 µM (inactive) | > 100 µM (inactive) | > 100 µM (inactive) | 74.8 µM (inactive) | – | 73.6 µM (inactive) | 30.8 µM (inactive) | 18.8 µM (inactive) | 29.3 µM (inactive) | 6.61 µM (inactive) | – | 28.6 µM (inactive) | 74.5 µM (inactive) | 27.2 µM (inactive) | 26.7 µM (inactive) | 50.6 µM (inactive) | 35.6 µM (inactive) | 22.6 µM (inactive) | 39.5 µM (inactive) | 28.6 µM (inactive) |
| CC(=O)N1C(Nc2cccc3nc(C)ccc23)CCN1c1ccccc1 (configuration not stated) | > 10 µM (inactive) | > 10 µM (inactive) | > 10 µM (inactive) | > 10 µM (inactive) | > 10 µM (inactive) | > 10 µM (inactive) | > 10 µM (inactive) | > 10 µM (inactive) | > 10 µM (inactive) | > 10 µM (inactive) | > 10 µM (inactive) | > 10 µM (inactive) | > 10 µM (inactive) | > 10 µM (inactive) | > 10 µM (inactive) | > 10 µM (inactive) | > 10 µM (inactive) | > 10 µM (inactive) | > 10 µM (inactive) | – |
| O=C(CNc1ccccn1)Nn1cnc2ccc(S(=O)(=O)Nc3ccccn3)cc2c1=O | > 100 µM (inactive) | > 100 µM (inactive) | > 100 µM (inactive) | > 100 µM (inactive) | > 100 µM (inactive) | > 100 µM (inactive) | 70.1 µM (inactive) | > 100 µM (inactive) | > 100 µM (inactive) | > 100 µM (inactive) | > 100 µM (inactive) | > 100 µM (inactive) | > 100 µM (inactive) | > 100 µM (inactive) | – | > 100 µM (inactive) | > 100 µM (inactive) | > 100 µM (inactive) | > 100 µM (inactive) | > 100 µM (inactive) |
| Cc1cc(=O)oc2c3c(ccc12)OC(c1ccc(Br)cc1)CC3=O (configuration not stated) | 5.48 µM (inactive) | 16.7 µM (inactive) | 3.03 µM (inactive) | 12.4 µM (inactive) | 2.21 µM (inactive) | 15.1 µM (inactive) | 10.7 µM (inactive) | 2.83 µM (inactive) | 2.98 µM (inactive) | 4.27 µM (inactive) | 18 µM (inactive) | 4.42 µM (inactive) | 12.5 µM (inactive) | 10.8 µM (inactive) | – | 10.2 µM (inactive) | 8.67 µM (inactive) | 3.02 µM (inactive) | 10.3 µM (inactive) | – |
| CN1C(=O)c2ccccc2NC(=O)C12O[C@@H]2c1ccccc1 (some centres not stated) | > 100 µM (inactive) | > 100 µM (inactive) | > 100 µM (inactive) | 75.2 µM (inactive) | > 100 µM (inactive) | > 100 µM (inactive) | > 100 µM (inactive) | – | > 100 µM (inactive) | > 100 µM (inactive) | – | > 100 µM (inactive) | > 100 µM (inactive) | > 100 µM (inactive) | – | > 100 µM (inactive) | > 100 µM (inactive) | 62.8 µM (inactive) | > 100 µM (inactive) | > 100 µM (inactive) |
| O=C1Nc2ccc(S(=O)(=O)O)cc2/C1=N/Nc1ccccc1[N+](=O)[O-] | > 100 µM (inactive) | > 100 µM (inactive) | > 100 µM (inactive) | > 100 µM (inactive) | – | > 100 µM (inactive) | > 100 µM (inactive) | 5.64 µM (inactive) | > 100 µM (inactive) | > 100 µM (inactive) | > 100 µM (inactive) | > 100 µM (inactive) | > 100 µM (inactive) | > 100 µM (inactive) | > 100 µM (inactive) | > 100 µM (inactive) | > 100 µM (inactive) | > 100 µM (inactive) | > 100 µM (inactive) | > 100 µM (inactive) |
| CC[C@@]1(O)C(=O)OCc2c1cc1n(c2=O)Cc2c-1nc1ccccc1c2/C=N\NC(=O)C(N)Cc1ccc(O)cc1 (some centres not stated) | 0.374 µM (active) | 0.815 µM (active) | 1.9 µM (inactive) | 0.315 µM (active) | < 0.0236 µM (active) | 2.57 µM (inactive) | 2.52 µM (inactive) | 0.531 µM (active) | 0.189 µM (active) | 0.367 µM (active) | 0.15 µM (active) | 0.998 µM (active) | 1.33 µM (inactive) | – | – | 0.202 µM (active) | 6.24 µM (inactive) | 0.415 µM (active) | 0.619 µM (active) | 1.27 µM (inactive) |
| OCc1cn(Cc2ccccc2)c2ccccc12 | 10.7 µM (inactive) | 9.02 µM (inactive) | 6.59 µM (inactive) | < 0.0461 µM (active) | 0.488 µM (active) | > 73.1 µM (inactive) | < 0.0356 µM (active) | 4.48 µM (inactive) | 19.5 µM (inactive) | 0.612 µM (active) | – | 4.65 µM (inactive) | 15.2 µM (inactive) | 0.232 µM (active) | < 0.0316 µM (active) | 14 µM (inactive) | > 59.3 µM (inactive) | 1.51 µM (inactive) | > 87.7 µM (inactive) | 5.51 µM (inactive) |
| O=c1/c(=C/c2ccc(-c3ccc(Cl)cc3Cl)o2)sc2n1[C@@H](c1ccc(Cl)cc1)C=C(c1cc(F)c(Cl)cc1Cl)N=2 | 45.3 µM (inactive) | > 100 µM (inactive) | 45.8 µM (inactive) | > 100 µM (inactive) | – | – | 33 µM (inactive) | 38.8 µM (inactive) | 57.9 µM (inactive) | 33.5 µM (inactive) | 22 µM (inactive) | 84.3 µM (inactive) | 50.8 µM (inactive) | – | 31.2 µM (inactive) | 36.1 µM (inactive) | > 100 µM (inactive) | 63.4 µM (inactive) | 41.5 µM (inactive) | 26.1 µM (inactive) |
| C=CCOC(=O)CC[C@H](NC(=O)[C@@H](CCC(F)(F)F)Cc1ccc(O)cc1)C(=O)OCC=C | 86.9 µM (inactive) | > 100 µM (inactive) | > 100 µM (inactive) | > 100 µM (inactive) | – | 27.3 µM (inactive) | > 100 µM (inactive) | 41.5 µM (inactive) | 55.2 µM (inactive) | 20.7 µM (inactive) | > 100 µM (inactive) | 24.3 µM (inactive) | > 100 µM (inactive) | – | > 100 µM (inactive) | 41 µM (inactive) | 23.7 µM (inactive) | 28.8 µM (inactive) | > 100 µM (inactive) | 67.1 µM (inactive) |
| CC1COC(c2cn[nH]c2C(N)=O)C1O (configuration not stated) | > 100 µM (inactive) | > 100 µM (inactive) | > 100 µM (inactive) | > 100 µM (inactive) | > 100 µM (inactive) | > 100 µM (inactive) | > 100 µM (inactive) | > 100 µM (inactive) | > 100 µM (inactive) | > 100 µM (inactive) | > 100 µM (inactive) | > 100 µM (inactive) | > 100 µM (inactive) | > 100 µM (inactive) | – | > 100 µM (inactive) | > 100 µM (inactive) | > 100 µM (inactive) | > 100 µM (inactive) | – |
